{"source": "patent US20250000847A1", "about": "“TREATMENT OF NEURODEGENERATIVE DISEASES WITH HDAC INHIBITORS” (CASE WESTERN RESERVE UNIVERSITY, priority 2021, published 2025)", "test_system": "GBP2+ reactive astrocytes", "experiment": "Lipopolysaccharide (LPS) model of neuroinflammation, GBP2+ reactive astrocytes in brain", "assay_type": "in vivo, mouse", "experimental": "After which, brain tissue was collected from the mice and processed for in situ hybridization with probes targeting GFAP as a general astrocyte marker, and the reactive astrocyte-specific marker GBP2.\nFor in vivo studies in situ hybridization was performed using RNAscope Multiplex Fluorescent V2 Assay (ACD Bio, 323136) according to manufacturer's instructions for fixed frozen samples. Briefly, tissue was prepared by first dehydrating with increasingly higher percentages of ethanol, then dried, blocked with hydrogen peroxide, followed by antigen retrieval for 5 minutes, dried again, and then protein was digested using provided Protease III. RNA targeting probes purchased from ACD Bio were then annealed at 40° C. for 2 hrs, followed by washing and a series of amplification steps before finally tagging the RNA with Opal Dye fluorophores (Perkin Elmer). In situ hybridization Images were captured on a Hamamatsu Nanozoomer S60 Slide scanner with NDP 2.0 software. Image analysis was performed using Perkin Elmer Columbus automated software."}
{"smiles": "Nc1cc(F)ccc1NC(=O)/C=C/c1cnn(C/C=C/c2ccccc2)c1", "note": "[RGFP966]", "values": [{"measurement": "percentage of GFAP+ astrocytes expressing GBP2", "setting": "10 mg/kg i.p. daily plus 5 mg/kg LPS, frontal cortex and corpus callosum, compared to vehicle plus LPS", "value": "lower percentage (about half)"}, {"measurement": "levels of GBP2+ reactive astrocytes", "setting": "chronic treatment prior to LPS challenge, frontal cortex, cerebellum, brainstem, and corpus callosum", "value": "decreased levels"}]}
